Laboratory results published in patent US11046672B2, “Indolinones compounds and their use in the treatment of fibrotic diseases” (RESPIVERT LIMITED, priority 2015, dated 2021).

Legend:
VEGFR2 = VEGFR2 (Homo sapiens (Human), UniProt P35968); test: VEGF165 induced phosphorylation of VEGFR2 in endothelial cells (TeloHAEC, HTRF); type: cell-based; settings: HAEC cells; n = 1 unless otherwise indicated
PAMPA permeability assay = type: in vitro ADME; settings: PAMPA
MRC5 cells = test: Cell viability assay in MRC5 cells (MTT)

Sequence of VEGFR2 (P35968 20-1356): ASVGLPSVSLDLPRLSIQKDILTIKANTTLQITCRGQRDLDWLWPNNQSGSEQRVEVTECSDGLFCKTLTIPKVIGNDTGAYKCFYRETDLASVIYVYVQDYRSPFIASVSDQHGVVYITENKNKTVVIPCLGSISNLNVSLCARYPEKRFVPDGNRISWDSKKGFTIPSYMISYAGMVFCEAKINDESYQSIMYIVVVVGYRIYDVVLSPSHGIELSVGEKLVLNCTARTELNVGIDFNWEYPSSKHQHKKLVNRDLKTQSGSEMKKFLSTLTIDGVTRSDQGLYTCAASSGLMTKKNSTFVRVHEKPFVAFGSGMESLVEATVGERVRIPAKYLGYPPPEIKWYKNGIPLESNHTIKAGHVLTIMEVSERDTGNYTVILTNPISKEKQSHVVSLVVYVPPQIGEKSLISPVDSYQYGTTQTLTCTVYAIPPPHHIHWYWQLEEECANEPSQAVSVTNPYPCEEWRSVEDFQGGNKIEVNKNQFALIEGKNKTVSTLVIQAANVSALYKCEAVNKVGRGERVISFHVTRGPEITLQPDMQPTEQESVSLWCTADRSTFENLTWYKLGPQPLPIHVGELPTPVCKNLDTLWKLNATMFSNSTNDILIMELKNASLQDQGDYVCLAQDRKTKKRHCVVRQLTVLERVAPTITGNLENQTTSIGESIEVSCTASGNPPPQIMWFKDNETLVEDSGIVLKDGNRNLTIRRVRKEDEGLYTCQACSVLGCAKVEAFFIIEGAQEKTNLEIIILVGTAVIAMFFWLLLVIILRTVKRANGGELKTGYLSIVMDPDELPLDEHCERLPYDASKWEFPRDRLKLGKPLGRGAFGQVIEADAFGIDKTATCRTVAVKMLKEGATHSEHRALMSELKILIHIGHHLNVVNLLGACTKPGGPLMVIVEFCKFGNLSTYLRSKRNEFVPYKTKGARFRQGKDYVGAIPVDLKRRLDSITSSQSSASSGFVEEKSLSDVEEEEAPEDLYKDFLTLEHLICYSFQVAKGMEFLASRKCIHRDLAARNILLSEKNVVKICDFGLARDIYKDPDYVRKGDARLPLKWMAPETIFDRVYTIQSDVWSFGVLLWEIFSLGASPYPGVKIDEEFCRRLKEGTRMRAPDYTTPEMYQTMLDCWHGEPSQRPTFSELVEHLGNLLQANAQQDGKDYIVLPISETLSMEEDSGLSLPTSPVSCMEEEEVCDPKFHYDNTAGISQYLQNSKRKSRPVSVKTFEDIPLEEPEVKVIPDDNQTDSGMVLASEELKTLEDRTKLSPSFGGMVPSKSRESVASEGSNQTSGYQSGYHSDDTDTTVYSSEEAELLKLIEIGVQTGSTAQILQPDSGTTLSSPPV

IC50 (VEGFR2): 32.2 nM
recovery at 5 hr, 10 μM (PAMPA permeability assay; pH 7, PAMPA, donor and acceptor compartments): 59.4%
Papp at 5 h, 10 μM (PAMPA permeability assay; pH 7, pH 7, 10 μM, 5 hr): 0.0679 ×10⁻⁶ cm/s
SMILES: COC(=O)c1cc2c(cc1C)/C(=C(/Nc1ccc(C(=O)NOCCCN3CCN(C)CC3)cc1)c1ccccc1)C(=O)N2 [Example 64]
Cell viability at 100 nM (%) (MRC5 cells; 100 nM): 86.5%
Cell viability at 300 nM (%) (MRC5 cells; 300 nM): 88.6%
Cell viability at 1000 nM (%) (MRC5 cells; 1000 nM): 73.7%
